# Test results: PubChem BioAssay (NCI)
#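 These data come from cells grown in 96-well plates and exposed to compound for 48 hours at five concentrations. GI50 is the concentration that inhibits growth by half. TGI denotes the concentration required for complete inhibition of growth.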
# Tests used:
# Assay in all cases: growth of human tumour cells (NCI), 48 h
# 786-0 renal = system: 786-0 renal
# A498 renal = system: A498 renal
# A549 NSCLC = system: A549 NSCLC
# ACHN renal = system: ACHN renal
# BT-549 breast = system: BT-549 breast
# CAKI-1 renal = system: CAKI-1 renal
# CCRF-CEM leukemia = system: CCRF-CEM leukemia
# COLO 205 colon = system: COLO 205 colon
# DU-145 prostate = system: DU-145 prostate
# HCC-2998 colon = system: HCC-2998 colon
# HCT-116 colon = system: HCT-116 colon
# HCT-15 colon = system: HCT-15 colon
# HL-60(TB) leukemia = system: HL-60(TB) leukemia
# HOP-62 NSCLC = system: HOP-62 NSCLC
# HS 578T breast = system: HS 578T breast
# HT29 colon = system: HT29 colon
# IGROV1 ovarian = system: IGROV1 ovarian
# K-562 leukemia = system: K-562 leukemia
# KM12 colon = system: KM12 colon
# LOX IMVI melanoma = system: LOX IMVI melanoma
# M14 melanoma = system: M14 melanoma
# MALME-3M melanoma = system: MALME-3M melanoma
# MCF7 breast = system: MCF7 breast
# MDA-MB-231 breast = system: MDA-MB-231 breast
# MDA-MB-435 = system: MDA-MB-435
# MOLT-4 leukemia = system: MOLT-4 leukemia
# NCI-H226 lung = system: NCI-H226 lung
# NCI-H23 lung = system: NCI-H23 lung
# NCI-H460 lung = system: NCI-H460 lung
# NCI-H522 lung = system: NCI-H522 lung
# NCI/ADR-RES ovarian = system: NCI/ADR-RES ovarian
# OVCAR-3 ovarian = system: OVCAR-3 ovarian
# OVCAR-4 ovarian = system: OVCAR-4 ovarian
# OVCAR-5 ovarian = system: OVCAR-5 ovarian
# OVCAR-8 ovarian = system: OVCAR-8 ovarian
# PC-3 prostate = system: PC-3 prostate
# RPMI-8226 leukemia = system: RPMI-8226 leukemia
# RXF 393 renal = system: RXF 393 renal
# SF-268 CNS = system: SF-268 CNS
# SF-295 CNS = system: SF-295 CNS
# SF-539 CNS = system: SF-539 CNS
# SK-MEL-2 melanoma = system: SK-MEL-2 melanoma
# SK-MEL-28 melanoma = system: SK-MEL-28 melanoma
# SK-MEL-5 melanoma = system: SK-MEL-5 melanoma
# SK-OV-3 ovarian = system: SK-OV-3 ovarian
# SN12C renal = system: SN12C renal
# SNB-19 CNS = system: SNB-19 CNS
# SNB-75 CNS = system: SNB-75 CNS
# SR leukemia = system: SR leukemia
# SW-620 colon = system: SW-620 colon
# T-47D breast = system: T-47D breast
# TK-10 renal = system: TK-10 renal
# U251 CNS = system: U251 CNS
# UACC-257 melanoma = system: UACC-257 melanoma
# UACC-62 melanoma = system: UACC-62 melanoma
# UO-31 renal = system: UO-31 renal
smiles,measurement,setting,value
CC(=O)N[C@@H](Cc1ccc(OP(=O)(O)O)cc1)C(=O)N[C@H]1CCC(=O)N2CCC[C@@H](C(=O)NCc3ccccc3)N2C1=O,GI50,786-0 renal,> 25 µM
same,TGI,786-0 renal,> 25 µM
same,GI50,A498 renal,> 25 µM
same,TGI,A498 renal,> 25 µM
same,GI50,A549 NSCLC,> 25 µM
same,TGI,A549 NSCLC,> 25 µM
same,GI50,ACHN renal,> 25 µM
same,TGI,ACHN renal,> 25 µM
same,GI50,BT-549 breast,> 25 µM
same,TGI,BT-549 breast,> 25 µM
same,GI50,CAKI-1 renal,> 25 µM
same,TGI,CAKI-1 renal,> 25 µM
same,GI50,CCRF-CEM leukemia,> 25 µM
same,TGI,CCRF-CEM leukemia,> 25 µM
same,GI50,COLO 205 colon,> 25 µM
same,TGI,COLO 205 colon,> 25 µM
same,GI50,DU-145 prostate,> 25 µM
same,TGI,DU-145 prostate,> 25 µM
same,GI50,HCC-2998 colon,> 25 µM
same,TGI,HCC-2998 colon,> 25 µM
same,GI50,HCT-116 colon,> 25 µM
same,TGI,HCT-116 colon,> 25 µM
same,GI50,HCT-15 colon,> 25 µM
same,TGI,HCT-15 colon,> 25 µM
same,GI50,HL-60(TB) leukemia,> 25 µM
same,TGI,HL-60(TB) leukemia,> 25 µM
same,GI50,HOP-62 NSCLC,> 25 µM
same,TGI,HOP-62 NSCLC,> 25 µM
same,GI50,HS 578T breast,> 25 µM
same,TGI,HS 578T breast,> 25 µM
same,GI50,HT29 colon,> 25 µM
same,TGI,HT29 colon,> 25 µM
same,GI50,IGROV1 ovarian,> 25 µM
same,TGI,IGROV1 ovarian,> 25 µM
same,GI50,K-562 leukemia,> 25 µM
same,TGI,K-562 leukemia,> 25 µM
same,GI50,KM12 colon,> 25 µM
same,TGI,KM12 colon,> 25 µM
same,GI50,LOX IMVI melanoma,> 25 µM
same,TGI,LOX IMVI melanoma,> 25 µM
same,GI50,M14 melanoma,> 25 µM
same,TGI,M14 melanoma,> 25 µM
same,GI50,MALME-3M melanoma,> 25 µM
same,TGI,MALME-3M melanoma,> 25 µM
same,GI50,MCF7 breast,> 25 µM
same,TGI,MCF7 breast,> 25 µM
same,GI50,MDA-MB-231 breast,> 25 µM
same,TGI,MDA-MB-231 breast,> 25 µM
same,GI50,MDA-MB-435,> 25 µM
same,TGI,MDA-MB-435,> 25 µM
same,GI50,MOLT-4 leukemia,> 25 µM
same,TGI,MOLT-4 leukemia,> 25 µM
same,GI50,NCI-H226 lung,> 25 µM
same,TGI,NCI-H226 lung,> 25 µM
same,GI50,NCI-H23 lung,> 25 µM
same,TGI,NCI-H23 lung,> 25 µM
same,GI50,NCI-H460 lung,> 25 µM
same,TGI,NCI-H460 lung,> 25 µM
same,GI50,NCI-H522 lung,> 25 µM
same,TGI,NCI-H522 lung,> 25 µM
same,GI50,NCI/ADR-RES ovarian,> 25 µM
same,TGI,NCI/ADR-RES ovarian,> 25 µM
same,GI50,OVCAR-3 ovarian,> 25 µM
same,TGI,OVCAR-3 ovarian,> 25 µM
same,GI50,OVCAR-4 ovarian,> 25 µM
same,TGI,OVCAR-4 ovarian,> 25 µM
same,GI50,OVCAR-5 ovarian,> 25 µM
same,TGI,OVCAR-5 ovarian,> 25 µM
same,GI50,OVCAR-8 ovarian,> 25 µM
same,TGI,OVCAR-8 ovarian,> 25 µM
same,GI50,PC-3 prostate,> 25 µM
same,TGI,PC-3 prostate,> 25 µM
same,GI50,RPMI-8226 leukemia,> 25 µM
same,TGI,RPMI-8226 leukemia,> 25 µM
same,GI50,RXF 393 renal,> 25 µM
same,TGI,RXF 393 renal,> 25 µM
same,GI50,SF-268 CNS,> 25 µM
same,TGI,SF-268 CNS,> 25 µM
same,GI50,SF-295 CNS,> 25 µM
same,TGI,SF-295 CNS,> 25 µM
same,GI50,SF-539 CNS,> 25 µM
same,TGI,SF-539 CNS,> 25 µM
same,GI50,SK-MEL-2 melanoma,> 25 µM
same,TGI,SK-MEL-2 melanoma,> 25 µM
same,GI50,SK-MEL-28 melanoma,> 25 µM
same,TGI,SK-MEL-28 melanoma,> 25 µM
same,GI50,SK-MEL-5 melanoma,> 25 µM
same,TGI,SK-MEL-5 melanoma,> 25 µM
same,GI50,SK-OV-3 ovarian,> 25 µM
same,TGI,SK-OV-3 ovarian,> 25 µM
same,GI50,SN12C renal,> 25 µM
same,TGI,SN12C renal,> 25 µM
same,GI50,SNB-19 CNS,> 25 µM
same,TGI,SNB-19 CNS,> 25 µM
same,GI50,SNB-75 CNS,> 25 µM
same,TGI,SNB-75 CNS,> 25 µM
same,GI50,SR leukemia,> 25 µM
same,TGI,SR leukemia,> 25 µM
same,GI50,SW-620 colon,> 25 µM
same,TGI,SW-620 colon,> 25 µM
same,GI50,T-47D breast,> 25 µM
same,TGI,T-47D breast,> 25 µM
same,GI50,TK-10 renal,> 25 µM
same,TGI,TK-10 renal,> 25 µM
same,GI50,U251 CNS,> 25 µM
same,TGI,U251 CNS,> 25 µM
same,GI50,UACC-257 melanoma,> 25 µM
same,TGI,UACC-257 melanoma,> 25 µM
same,GI50,UACC-62 melanoma,> 25 µM
same,TGI,UACC-62 melanoma,> 25 µM
same,GI50,UO-31 renal,> 25 µM
same,TGI,UO-31 renal,> 25 µM
